# Measurements from PubChem BioAssay (NCI).
# Several values for one entry are separate records, joined by “and”; a condition that tells them apart may be missing. Equal entries are not always repeated.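 Tested at 5 concentrations; 48 h exposure; 96-well plates; endpoints linearly interpolated, else capped at highest concentration. GI50 = concentration required for 50% inhibition of growth. At the TGI there is no net growth.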
# Key:
# Test in all cases: NCI anticancer screen, dose series, 48 h
# M14 melanoma = test system: M14 melanoma
# MOLT-4 leukemia = test system: MOLT-4 leukemia
# HCT-116 colon = test system: HCT-116 colon
# UO-31 renal = test system: UO-31 renal
# A549 NSCLC = test system: A549 NSCLC
# NCI-H460 lung = test system: NCI-H460 lung
# SNB-75 CNS = test system: SNB-75 CNS
# 786-0 renal = test system: 786-0 renal
# T-47D breast = test system: T-47D breast
# NCI-H23 lung = test system: NCI-H23 lung
SMILES,GI50 (M14 melanoma) [µM],TGI (M14 melanoma) [µM],GI50 (MOLT-4 leukemia) [µM],TGI (MOLT-4 leukemia) [µM],GI50 (HCT-116 colon) [µM],TGI (HCT-116 colon) [µM],GI50 (UO-31 renal),TGI (UO-31 renal),GI50 (A549 NSCLC) [µM],TGI (A549 NSCLC) [µM],GI50 (NCI-H460 lung) [µM],TGI (NCI-H460 lung) [µM],GI50 (SNB-75 CNS) [µM],TGI (SNB-75 CNS) [µM],GI50 (786-0 renal) [µM],TGI (786-0 renal) [µM],GI50 (T-47D breast),TGI (T-47D breast),GI50 (NCI-H23 lung) [µM],TGI (NCI-H23 lung) [µM]
CCOC(=O)C1=C(C)N(c2ccc(F)cc2F)[C@]2(C#N)C(O)=C(Cl)C(Cl)=C(O)[C@]12C#N,> 100,> 100,> 100,> 100,> 100,> 100,> 100 µM,> 100 µM,> 100,> 100,> 100,> 100,> 100,> 100,> 100,> 100,> 100 µM,> 100 µM,> 100,> 100
Nc1ccccc1SC(CC(=O)c1ccccc1)c1cccc([N+](=O)[O-])c1 (centres undefined),17.3,32.5,17.6,50.5,1.96,3.97,3.11 µM,20.5 µM,18.6,36.7,19.4,38.8,13.6,26.7,18.9,33.3,12.1 µM,36.2 µM,17.6,32.6
C=C1C(=O)O[C@H]2[C@H]1CC/C(COC(=O)NCc1ccc(Cn3c(=O)sn(-c4ccc(OC)cc4)c3=O)cc1)=C\CC[C@@]1(C)O[C@@H]21,2.19,5.65,1.93,5.95,1.93,3.78,1.56 µM,2.94 µM,15.2,29.1,3.7,13.5,3.44,15.3,2.05,4.51,1.86 µM,4.53 µM,2.97,9.9
CCN(Cc1ccc(F)cc1)c1cc(Cl)c(CO)c(Cl)c1,17,35,16.6,44,5.15,18.7,12.2 µM,25.4 µM,12.3,29.1,11.8,25.9,12.8,25.9,16,32.5,7.47 µM,26.5 µM,13,28.8
Cc1csc(-c2nnc(Nc3ccc(Oc4ncccc4-c4ccnc(N)n4)cc3)c3ccccc23)c1,1.51,> 100,3.34,> 100,1.89,> 100,,> 100 µM,1.95,> 100,0.0214,> 100,,,> 100,> 100,5 µM,> 100 µM,2.9,> 100
COc1cc(C2CC(C)(O)Oc3cc4c(cc32)OCO4)cc(OC)c1OC (centres undefined),,> 100,,> 100,,> 100,,,,> 100,,17.6,,,,> 100,,> 100 µM,,> 100
COc1ccc2nc(NC(=O)CSc3nnc4n3S(=O)(=O)c3ccccc3N4c3ccccc3)sc2c1,> 100,> 100,> 100,> 100,94.1,> 100,> 100 µM,> 100 µM,> 100,> 100,> 100,> 100,15.9,> 100,12.4,93.1,> 100 µM,> 100 µM,> 100,> 100
CCN(C(=O)N1CCN(c2cc3c(cc2F)c(=O)c(C(=O)O)cn3C2CC2)CC1)c1nc(-c2ccc(Cl)cc2)cs1,2.12,> 100,0.542,3.67,1.1,> 100,0.986 µM,> 20.5 µM,1.01,> 100,0.96,> 100,1.37,9.32,2.41,15.4,1.99 µM,> 100 µM,1.56,8.45
CCCCCCCCCCCCCCCC[N+](C)(C)Cc1ccccc1,1.2,2.49,,,,,2.98 µM and 2.01 µM,22.8 µM and 8.18 µM,,,,,1.34,2.76,1.52,2.93,1.31 µM and 1.48 µM,5.62 µM and 6.1 µM,,
O=S(=O)(c1ccccc1)N1CCN(S(=O)(=O)c2ccccc2)c2ccccc21,,> 100,,,,> 100,,> 100 µM,,> 100,,> 100,,> 100,,> 100,,> 100 µM,,> 100
CCN1C(=O)N(c2ccccc2)C2NC(=S)N(/N=C/C=C/c3ccccc3OC)C21 (centres undefined),0.0946,,0.128,> 100,0.105,> 32.7,0.486 µM,> 100 µM,0.121,> 100,0.111,> 36.2,0.0383,> 41.4,0.182,> 68.8,4.12 µM,> 100 µM,0.174,> 61.6
COc1cc(/C(C#N)=C/c2nc3c(N4CCOCC4)nc(Cl)nc3n2C)cc(OC)c1OC,,,< 0.0184,27.5,< 0.01,0.464,< 0.01 µM,5.17 µM,< 0.01,> 45.5,< 0.01,5.37,,,< 0.01,3.12,,5.63 µM,< 0.01,> 35.4
O=C(Nc1ccc(Oc2ccc(Nc3nc4ccccc4s3)cc2)cc1)Nc1ccc(Cl)c(C(F)(F)F)c1,1.46,3.13,,,1.31,2.61,1.22 µM,2.82 µM,1.97,6.26,1.74,4.34,1.41,5.27,1.79,4.63,1.21 µM,3.96 µM,1.06,2.77
S=c1sc2c(n1-c1ccccc1)NC=NC2S (centres undefined),,> 100,,> 100,,> 100,,> 100 µM,,> 100,,> 100,,> 100,,> 100,,,,> 100
CC(=O)CC(OC(C)=O)C1=CCC2C(CC1C)OC(=O)C2C (centres undefined),,> 100,,> 100,,> 100,,,,> 100,,> 100,,> 100,,> 100,,> 100 µM,,> 100
